Assay results: US20020091086A1, “Peptides that block viral infectivity and methods of use thereof” (priority 1999, published 2002)
Peptide text beside a SMILES is read from it.

Legend:
HIV-1 SF-2 virus = assay: electron microscopy of HIV-1 particles from infected HUT78 cells; format: cell-based; settings: 1 μM or 10 μM added 3, 5 or 7 days post infection; cells fixed day 14
Procedure: In this set of experiments, HUT78 cells were infected with HIV-1 SF-2 virus at 300TCID50 for 1 hr at 37° C. Subsequently, the infected cells were washed and pelleted 3 times, as described in Example 2. Thereafter, the cells were resuspended in RPMI culture medium supplemented with 10% FBS, antibiotics (100 u/ml) and polybrene (3.2 μg/ml). GPG-NH2 was then added into the cell cultures 3, 5 or 7 days post infection at concentration of 1 μM or 10 μM. A control sample was administered 0.5μM Ritonavir (a protease inhibitor).
The cells were cultured until day 14, at which point, the cells were fixed in 2.5% glutaraldehyde by conventional means. The fixed cells were then postfixed in 1% OSO4 and were dehydrated, embedded with epoxy resins, and the blocks were allowed to polymerize. Epon sections of virus infected cells were made approximately 60-80 nm thin in order to accommodate the width of the nucleocapsid. The sections were mounted to grids stained with 1.0% uranyl acetate and were analyzed in a Zeiss CEM 902 microscope at an accelerating voltage of 80 kV. The microscope was equipped with a spectrometer to improve image quality and a liquid nitrogen cooling trap was used to reduce beam damage. The grids having sections of control and GPG-NH2 incubated cells were examined in several blind studies.

BSA = target: T1, BSA (Bos taurus, UniProt P02769); assay: dialysis-based binding assay with 14C-GPG-NH2, BSA; settings: dialysis 2 days at 4° C. against 27.5 μM 14C-GPG-NH2; buffer 1.816
T1 construct: purchased Sigma
Procedure: A dialysis-based binding assay was conducted using a dialysis membrane with a pore size of less than 10 kD. (Slide-A-Lyzer, Pierce). Fifty microliters of a 10 μM stock of the recombinant proteins p24 and gp120 (gifts from the AIDS program, NCIB) and BSA (Sigma) were introduced into separate dialysis membranes and the proteins were dialyzed at 4° C. for 2 days against a 500 ml solution composed of 150 mM NaCl and 50 mM Tris-HCl, pH 7.4 buffer and 27.5 μM of ^14C-GPG-NH2 (Amersham Ltd. UK). Subsequently, ten or five microliter aliquots of the dialyzed p24, gp120, and BSA were removed and mixed with 3 ml of ReadySafe (Beckman) in a scintillation vial. The C^14 was then detected by scintillation counting.

[1] = tested on: HIV-1 isolate p7141 (high PI); assay: resistant HIV-1 isolates in PBMC, p24 ELISA; format: cell-based; settings: GPG 100 μM, 14 days post infection
HIV-1 DNA = assay: Southern blot of proviral DNA in HIV-1 infected H-9 cells; format: cell-based; settings: 0-2,000 μM; first 24 h
Procedure: To study proviral DNA and viral RNA synthesis, DNA and RNA from HIV-1 infected H-9 cells cultured in the presence of a small peptide were prepared at various time points (0-48 h).

[2] = stability in human plasma by thin layer chromatography; format: in vitro ADME; settings: 37° C.; 30 minutes, two hours, eight hours
Procedure: The stability of GPG-NH2 in human plasma was also assessed chemically by thin layer chromatography (TLC). (See FIG. 7). In this experiment, ^14C GPG-NH2 was incubated with human plasma at 37° C. for 30 minutes, two hours, or eight hours and then the proteins were separated by TLC and were visualized by exposure of the chromatograph to autoradiography film. As shown in FIG. 7 (lanes Hp0, Hp0.5, Hp2, and Hp8), a slight shift in mobility of the small peptide was observed. […] Mass-spectrometry analysis (electrospray analysis) of the TLC spots verified that all spots, including the spot with increased mobility, were GPG-NH2.

[3] = radioactivity associated with rat plasma proteins, SDS/PAGE; format: in vivo, rats; settings: 60 minutes after feeding
Procedure: The proteins from whole plasma were also analyzed by column chromatography and fractionated and crude protein were separated by sodium dodecyl sulfate polyacrylamide gel (10%) electrophoresis (SDS/PAGE). Rat plasma samples were partially purified with size exclusion ([…], Phamacia) chromatography (0.4×6 cm), in a buffer of 10 mM Tris-HCl pH 8.3 and 50 mM KCl. Eluate was then separated by anionic exchange chromatography by using an increasing stepwise gradient of NaCl in a buffer of 10 mM Tris-HCl pH8.3 (Sepharose CL-6B DEAE, 0.4×6 cm). The eluate was monitored and pooled according to the radioactivity (Ready Safe, Beckman; LKB 1218, Sweden). The protein fractions with strong signal were separated on a 10% SDS-PAGE and were subsequently blotted onto PVDF (polyvinylidene difluoride, BioRad) membrane before being subjected to Edman N-terminal amino acid sequencing (Applied Biosystems Procise Sequencer, USA).
The proteins marked B1-B4 were sequenced and determined to be alpha-1 antitrypsin (Bi), pentaxin (B-2), C-reactive protein (B-3), and B-4 could not be identified. These proteins are all synthesized in the liver. One interpretation is that hydrolyzed GPG-NH2 was reutilized in the liver protein synthesis. […]

[4] = tested on: HIV-1 isolate p7227 (high AZT); assay: resistant HIV-1 isolates in PBMC, p24 ELISA; format: cell-based; settings: GPG 100 μM, 14 days post infection
HIV-1 specific protease = HIV-1 specific protease (Human immunodeficiency virus type 1 group M subtype B, UniProt P04585); assay: activity of the HIV-1 specific protease; format: biochemical

NCC(=O)N1CCC[C@H]1C(=O)NCC(N)=O [GPG-NH2, glycyl-prolyl-glycine amide] (H-Gly-Pro-Gly-NH2)
viral nucleocapsid formation, electron microscopy (HIV-1 SF-2 virus): interrupted proper viral nucleocapsid formation
radioactive GPG-NH2 associated with BSA (BSA): 1.674 μCi/ml
N- or O-linked glycosylation of the virus protein (gp160): no effect
% reduction [1]: (100%)
HIV-1 p24 [1]: <500 pg/mL
HIV-1 entry and proviral DNA synthesis (HIV-1 DNA): no inhibitory effect
TLC mobility after incubation in human plasma [2]: no further change in mobility was observed at up to 8 hours
radioactivity covalently associated with plasma proteins [3]: little radioactivity was observed to be covalently associated with proteins
% reduction [4]: (100%)
HIV-1 p24 [4]: <500 pg/mL
activity of the HIV-1 specific protease (HIV-1 specific protease): not to affect
